One data set addresses T1, PPARα (Homo sapiens, UniProt Q07869).
T1 sequence (Q07869 1-468): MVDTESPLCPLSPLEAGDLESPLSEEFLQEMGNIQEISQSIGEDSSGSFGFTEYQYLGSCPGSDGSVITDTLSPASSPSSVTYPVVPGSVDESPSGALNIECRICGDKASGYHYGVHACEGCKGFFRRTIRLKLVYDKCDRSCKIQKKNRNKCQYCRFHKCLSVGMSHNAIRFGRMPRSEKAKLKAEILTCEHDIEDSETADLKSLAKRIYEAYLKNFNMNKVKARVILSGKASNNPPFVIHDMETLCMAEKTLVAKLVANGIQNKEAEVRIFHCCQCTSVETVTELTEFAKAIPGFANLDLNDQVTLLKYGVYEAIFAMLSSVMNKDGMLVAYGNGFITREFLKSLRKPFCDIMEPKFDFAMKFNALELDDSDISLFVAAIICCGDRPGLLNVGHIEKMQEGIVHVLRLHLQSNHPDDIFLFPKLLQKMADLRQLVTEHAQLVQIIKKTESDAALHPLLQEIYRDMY
Description: PPARα reporter assay (INDIGO Biosciences). The settings on record: 12.5 μM test compound, luciferase reporter cells, 20 hours, activity compared to GW590735; for Emax at 12.5 µM: read-out: PPARα % GW590735 (20.6 nM). Format: cell-based. The protocol: (§1) The functional effect of THIAA derivatives on PPARα and PPARγ activity was evaluated using a PPAR reporter assay (INDIGO Biosciences, Pa.). This assay utilizes non-human mammalian cells engineered to provide constitutive high level expression of PPARα, or PPARγ and containing a luciferase report gene specific to the appropriate PPAR. Following activation by agonist binding, PPAR induces expression of the luciferase reporter gene. Luciferase activity therefore provides a surrogate for measuring PPAR activity in agonist-treated cells.
(§2) 0.1% DMSO was used as a solvent control for each assay. Plates were incubated for 20 hours in a humidified incubator at 37° C. and 5% CO2. After incubation, the cell medium was discarded and the cells were treated with 100 μL of luciferase detection reagent for 15 minutes. Plates were analyzed using a luminometer (Victor2, Perkin Elmer). Average relative light unit (RLU) and standard deviation were measured.
Background: Reporter assays use an easily measured gene product as a stand-in for the process of interest.

Data set [1] relates to LPS-mediated inflammatory mediators in RAW264.7 and THP-1 cells. Description: Mean inhibition across all six inflammatory mediators. The format is cell-based. The settings on record: 12.5 μM test compound. The protocol: (§3) The effect of the THIAA derivatives on LPS-mediated prostaglandin E2 (PGE2) and nitric oxide (NO) production was evaluated in a RAW264.7 murine macrophage model. The RAW 264.7 cell line was purchased from ATCC (Manassas, Va.) and maintained according to their instructions. Cells were grown and subcultured in 96-well plates at a density of 8×10^4 cells per well, and reached 80-90% confluence the next day. THIAA derivatives were added to the cells in serum-free medium at a final concentration of 0.1% DMSO. Following one hour of incubation with the THIAA derivatives, LPS (1 μg/ml) or DMEM medium alone was added to the cells and incubation was continued for 6 hours. Stimulation of RAW 264.7 cells with LPS (1 μg/ml) for 6 hours activated the production of PGE2 and NO. Supernatant media was collected for measurement of PGE2 levels. For NO, incubations were continued overnight. Supernatant media was collected for measurement of NO levels after 16 hours of stimulation. PGE2 levels were measured using assay kits from Assay Designs, (Ann Arbor, Mich.) and NO levels were measured using assay kits from Cayman Chemicals (Ann Harbor, Mich.).
(§4) The effect of the THIAA derivatives on LPS-mediated MMP-9, IL-1β, ([…], MCP-1, RANTES, and MIP-1α was evaluated in THP-1 cells. Stimulation of THP-1 cells with LPS (1 μg/ml) activated the production of MMP-9, IL-1β, MCP-1, RANTES, and MIP-1α.
(§5) Results are summarized in Table 2, with data represented as % inhibition of inflammatory mediator production.
Mean inhibition across all six inflammatory mediators was calculated for each of the THIAA derivatives.

Data set [2] has as its system LPS-mediated prostaglandin E2 (PGE2) production in RAW264.7 cells. Description: LPS-mediated PGE2 production in RAW264.7 murine macrophage model. Format: cell-based. As to conditions: Mus musculus, RAW264.7, 6 h, 12.5 μM test compound, LPS 1 μg/ml, NI = no inhibition. The protocol:
(§6) THIAA derivatives synthesized in Examples 1-19 were dissolved in dimethyl sufoxide (DMSO) and stored at −20° C. LPS was purchased from Sigma Chemicals (St. Louis, Miss.).
as §3, §5

Data set [3] has as its system LPS-mediated nitric oxide (NO) production in RAW264.7 cells. Description: LPS-mediated NO production in RAW264.7 murine macrophage model. The format is cell-based. The settings on record: Mus musculus, RAW264.7, 16 h, 12.5 μM test compound, LPS 1 μg/ml, NI = no inhibition. On the procedure:
as §6, §3, §5

Data set [4] deals with LPS-mediated IL-6 production in THP-1 cells. Description: LPS-mediated IL-6 production in THP-1 cells. Format: cell-based. The settings on record: Homo sapiens; 12.5 μM test compound; THP-1 cells, LPS 1 μg/ml; NI = no inhibition. On the procedure: as §6, §4, §5
Data set [5] has as its system LPS-mediated MCP-1 production in THP-1 cells. Description: LPS-mediated MCP-1 production in THP-1 cells. The format is cell-based. As to conditions: Homo sapiens; 12.5 μM test compound; THP-1 cells, LPS 1 μg/ml; NI = no inhibition. On the procedure:
as §6, §4, §5

Data set [6] has as its system LPS-mediated RANTES production in THP-1 cells. Description: LPS-mediated RANTES production in THP-1 cells. Format: cell-based. The settings on record: Homo sapiens; 12.5 μM test compound; THP-1 cells, LPS 1 μg/ml; NI = no inhibition. On the procedure: as §6, §4, §5
In data set [7] the test system is LPS-mediated MIP-1α production in THP-1 cells. Description: LPS-mediated MIP-1α production in THP-1 cells. The format is cell-based. The settings on record: Homo sapiens; 12.5 μM test compound; THP-1 cells, LPS 1 μg/ml; NI = no inhibition. The protocol:
as §6, §4, §5

In a further data set the target is T2, PPARγ (Homo sapiens, UniProt P37231).
T2 sequence (P37231 1-505): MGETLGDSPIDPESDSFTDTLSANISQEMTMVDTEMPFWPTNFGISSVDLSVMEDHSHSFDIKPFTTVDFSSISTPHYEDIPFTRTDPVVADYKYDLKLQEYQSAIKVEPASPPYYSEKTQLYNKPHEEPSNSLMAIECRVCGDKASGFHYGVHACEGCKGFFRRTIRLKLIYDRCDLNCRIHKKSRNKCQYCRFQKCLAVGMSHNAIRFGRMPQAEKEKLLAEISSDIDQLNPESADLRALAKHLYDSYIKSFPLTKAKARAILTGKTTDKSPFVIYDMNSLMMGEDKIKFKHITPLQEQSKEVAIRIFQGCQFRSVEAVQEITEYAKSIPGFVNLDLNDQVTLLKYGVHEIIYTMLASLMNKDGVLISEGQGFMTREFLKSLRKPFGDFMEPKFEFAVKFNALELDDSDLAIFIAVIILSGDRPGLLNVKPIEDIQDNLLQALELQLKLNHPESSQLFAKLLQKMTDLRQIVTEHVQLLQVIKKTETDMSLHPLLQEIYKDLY
Description: PPARγ reporter assay (INDIGO Biosciences). Format: cell-based. As to conditions: 20 h, read-out: PPARγ % rosiglitazone (500 nM), 12.5 μM test compound; luciferase reporter cells, 20 hours; activity compared to rosiglitazone. The protocol: as §1, §2

A value given as a limit tells only on which side of the number the result lay.

What is called inhibition is how much of the control response was suppressed. In general, melting point refers to the temperature of the solid-liquid transition.

Compound `CC(C)CCC(=O)[C@@]1(O)C(O)=C(C(=O)C(C)C)C(=O)[C@@H]1CCC(C)C` [KDT100, (4S,5R)-3,4-dihydroxy-5-(3-methylbutyl)-4-(4-methylpentanoyl)-2-(2-methylpropanoyl)cyclopent-2-en-1-one] came in with a melting point of 49 to 50 °C. Besides, on PPARα, the “PPARα % GW590735 (20.6 nM)” value is on record as “no effect” and the Emax at 12.5 µM is less than 5%. Also, in [1], the inhibition at 12.5 µM is less than 20%. In data set [2], this compound registered an inhibition at 12.5 µM of less than 0%. The compound further yielded an inhibition at 12.5 µM in data set [3] of less than 0%. For the same compound, the inhibition at 12.5 µM in data set [4] is less than 20%. For the same compound, testing at 12.5 µM in data set [5] gave an inhibition of 61%. The same compound gave an inhibition at 12.5 µM in data set [6] of 22%. Besides, the inhibition at 12.5 µM in [7] is less than 0%.
In the case of `C#CCCOC(=O)O[C@]1(C(=O)CCC(C)C)C(O)=C(C(=O)CC(C)C)C(=O)[C@@H]1CCC(C)C` [KDT0035, but-3-yn-1-yl (1S,5R)-2-hydroxy-3-(3-methylbutanoyl)-5-(3-methylbutyl)-1-(4-methylpentanoyl)-4-oxocyclopent-2-en-1-yl carbonate], the Emax at 12.5 µM on PPARγ turned out to be 43%; at PPARα, 40%. Further, the “PPARα % GW590735 (20.6 nM)” value at PPARα is “dual PPARα and PPARγ agonists”. The inhibition at 12.5 µM in data set [1] is 77%; in data set [2] it was 89%; in [3] it was 44%; in data set [4], 65%; in [5], 95%; in data set [6], 84%. Also, testing at 12.5 µM in [7] gave an inhibition of 82%.
In the case of `CC(C)CCC(=O)[C@@]1(O)C(=O)/C(=C(\CC(C)C)NCc2ccccc2)C(=O)[C@@H]1CCC(C)C` [KDT0024, (4R,5R)-2-[1-(benzylamino)-3-methylbutylidene]-4-hydroxy-5-(3-methylbutyl)-4-(4-methylpentanoyl)cyclopentane-1,3-dione], the Emax at 12.5 µM on PPARγ and at PPARα was less than 5% throughout. Besides, the inhibition at 12.5 µM in [1] stood at 44%; in data set [2], 81%; in [3], 27%; in data set [4], 53%; in [5], 80%; in data set [6], 20%. In data set [7], this compound returned an inhibition at 12.5 µM of less than 0%.
As to `CC(C)CCC(=O)[C@@]1(O)C(=O)/C(=C(\CC(C)C)NCCO)C(=O)[C@@H]1CCC(C)C` [KDT0017, (4R,5R)-4-hydroxy-2-{1[(2-hydroxyethyl)amino]-3-methylbutylidene}-5-(3-methylbutyl)-4-(4-methylpentanoyl)cyclopentane-1,3-dione], the Emax at 12.5 µM on PPARγ and on PPARα was less than 5% in each case. The inhibition at 12.5 µM in data set [1] was 23%; in [2] it was less than 0%; in data set [3] it was less than 20%; in data set [4], 50%; in data set [5] it was 80%; in [6] it was less than 0%. For the same compound, the inhibition at 12.5 µM in [7] was less than 0%.
For the compound `CC(C)CCC(O)[C@@]1(O)C(O)=C(C(=O)CC(C)C)C(=O)[C@@H]1CCC(C)C` (stereo partly drawn) [KDT0039, (4R,5R)-3,4-dihydroxy-4-(1-hydroxy-4-methylpentyl)-2-(3-methylbutanoyl)-5-(3-methylbutyl)cyclopent-2-en-1-one], the Emax at 12.5 µM at PPARγ and on PPARα was less than 5% in each case. The inhibition at 12.5 µM was 26% in data set [1]; less than 0% in data set [2]; less than 20% in [3]; 22% in data set [4]; 50% in data set [5]; 58% in data set [6]. In addition, in [7], the inhibition at 12.5 µM was determined as 23%.

For the origin of these results see patent US10343977B2, “Tetrahydro-isohumulone derivatives, methods of making and using” (KINDEX PHARMACEUTICALS, INC., priority 2012, dated 2019).
